Measurements published in the supplement of paper PMC10307832.

Key:
Experiment in all cases: relative viability (nuclei count vs DMSO), 5 days (fraction); higher = more cells survive
NCI-H1666 = system: NCI-H1666
How it was run: (§1)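 Relative viability was taken as the ratio of nuclei in treated wells to nuclei in vehicle wells. Lung cancer cell lines in 1536-well plates received compounds by pin tool one day after seeding, either one drug alone or a fixed anchor-drug dose plus five library-drug doses (not always all listed) in √10 steps. Nuclei were counted on 4× images after 5 days of treatment, and values are medians of duplicate plates.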

NCI-H322M = system: NCI-H322M
How it was run: as §1

NCI-H1792 = system: NCI-H1792
How it was run: as §1

NCI-H1944 = system: NCI-H1944
How it was run: as §1

HCC-827 = system: HCC-827
How it was run: as §1

RERF-LC-KJ = system: RERF-LC-KJ
How it was run: as §1

LCLC-103H = system: LCLC-103H
How it was run: as §1

NCI-H358 = system: NCI-H358
How it was run: as §1

NCI-H1793 = system: NCI-H1793
How it was run: as §1

ABC-1 = system: ABC-1
How it was run: as §1

NCI-H520 = system: NCI-H520
How it was run: as §1

LU99A = system: LU99A
How it was run: as §1

NCI-H2347 = system: NCI-H2347
How it was run: as §1

NCI-H1395 = system: NCI-H1395
How it was run: as §1

CAL-12T = system: CAL-12T
How it was run: as §1

NCI-H2126 = system: NCI-H2126
How it was run: as §1

SK-LU-1 = system: SK-LU-1
How it was run: as §1

NCI-H1755 = system: NCI-H1755
How it was run: as §1

NCI-H3122 = system: NCI-H3122
How it was run: as §1

LXF-289 = system: LXF-289
How it was run: as §1

HCC-44 = system: HCC-44
How it was run: as §1

## Cc1cn(-c2cc(NC(=O)c3ccc(C)c(Nc4nccc(-c5cccnc5)n4)c3)cc(C(F)(F)F)c2)cn1 [Nilotinib] + C[C@]1(O)C[C@@H](c2nc(-c3ccc4ccc(-c5ccccc5)nc4c3)c3c(N)nccn32)C1 [Linsitinib] (partner 1 µM)
NCI-H1666; first compound 0.001 µM
  relative viability: 0.854
NCI-H1666; first compound 0.003162 µM
  relative viability: 0.954
NCI-H1666; first compound 0.01 µM
  relative viability: 0.74
NCI-H1666; first compound 0.03162 µM
  relative viability: 0.911
NCI-H1666; first compound 0.1 µM
  relative viability: 0.945
NCI-H322M; first compound 0.001 µM
  relative viability: 0.747
NCI-H322M; first compound 0.003162 µM
  relative viability: 1.03
NCI-H322M; first compound 0.03162 µM
  relative viability: 0.76
NCI-H322M; first compound 0.1 µM
  relative viability: 0.932
NCI-H1792; first compound 0.001 µM
  relative viability: 0.334
NCI-H1792; first compound 0.01 µM
  relative viability: 0.583
NCI-H1792; first compound 0.1 µM
  relative viability: 0.565
NCI-H1944; first compound 0.001 µM
  relative viability: 1.08
NCI-H1944; first compound 0.003162 µM
  relative viability: 1.41
NCI-H1944; first compound 0.01 µM
  relative viability: 1.5
NCI-H1944; first compound 0.03162 µM
  relative viability: 1.33
NCI-H1944; first compound 0.1 µM
  relative viability: 1.36
HCC-827; first compound 0.001 µM
  relative viability: 0.944
HCC-827; first compound 0.003162 µM
  relative viability: 1.08
HCC-827; first compound 0.01 µM
  relative viability: 1.08
HCC-827; first compound 0.1 µM
  relative viability: 0.941
RERF-LC-KJ; first compound 0.001 µM
  relative viability: 0.882
RERF-LC-KJ; first compound 0.003162 µM
  relative viability: 0.941
RERF-LC-KJ; first compound 0.01 µM
  relative viability: 1.05
RERF-LC-KJ; first compound 0.03162 µM
  relative viability: 0.853
RERF-LC-KJ; first compound 0.1 µM
  relative viability: 0.917
LCLC-103H; first compound 0.001 µM
  relative viability: 1.19
LCLC-103H; first compound 0.003162 µM
  relative viability: 1.17
LCLC-103H; first compound 0.03162 µM
  relative viability: 0.783
LCLC-103H; first compound 0.1 µM
  relative viability: 1.17
NCI-H358; first compound 0.001 µM
  relative viability: 0.67
NCI-H358; first compound 0.003162 µM
  relative viability: 0.893
NCI-H358; first compound 0.01 µM
  relative viability: 0.847
NCI-H358; first compound 0.03162 µM
  relative viability: 0.474
NCI-H358; first compound 0.1 µM
  relative viability: 0.612
NCI-H1793; first compound 0.003162 µM
  relative viability: 1.09
NCI-H1793; first compound 0.01 µM
  relative viability: 1.41
NCI-H1793; first compound 0.03162 µM
  relative viability: 0.734
NCI-H1793; first compound 0.1 µM
  relative viability: 0.443
ABC-1; first compound 0.001 µM
  relative viability: 0.985
ABC-1; first compound 0.003162 µM
  relative viability: 0.862
ABC-1; first compound 0.01 µM
  relative viability: 0.724
ABC-1; first compound 0.03162 µM
  relative viability: 0.683
ABC-1; first compound 0.1 µM
  relative viability: 0.554
NCI-H520; first compound 0.001 µM
  relative viability: 0.792
NCI-H520; first compound 0.01 µM
  relative viability: 1.2
NCI-H520; first compound 0.03162 µM
  relative viability: 0.91
NCI-H520; first compound 0.1 µM
  relative viability: 0.928
LU99A; first compound 0.001 µM
  relative viability: 0.468
LU99A; first compound 0.003162 µM
  relative viability: 0.59
LU99A; first compound 0.01 µM
  relative viability: 0.593
LU99A; first compound 0.03162 µM
  relative viability: 0.568
LU99A; first compound 0.1 µM
  relative viability: 0.318
NCI-H2347; first compound 0.001 µM
  relative viability: 1.01
NCI-H2347; first compound 0.003162 µM
  relative viability: 1.11
NCI-H2347; first compound 0.01 µM
  relative viability: 1.1
NCI-H2347; first compound 0.03162 µM
  relative viability: 0.903
NCI-H2347; first compound 0.1 µM
  relative viability: 0.909
NCI-H1395; first compound 0.001 µM
  relative viability: 1
NCI-H1395; first compound 0.003162 µM
  relative viability: 0.826
NCI-H1395; first compound 0.01 µM
  relative viability: 1.07
NCI-H1395; first compound 0.03162 µM
  relative viability: 0.86
NCI-H1395; first compound 0.1 µM
  relative viability: 0.759
CAL-12T; first compound 0.001 µM
  relative viability: 0.75
CAL-12T; first compound 0.003162 µM
  relative viability: 0.771
CAL-12T; first compound 0.01 µM
  relative viability: 0.946
CAL-12T; first compound 0.03162 µM
  relative viability: 0.714
CAL-12T; first compound 0.1 µM
  relative viability: 0.565
NCI-H2126; first compound 0.001 µM
  relative viability: 0.684
NCI-H2126; first compound 0.003162 µM
  relative viability: 0.806
NCI-H2126; first compound 0.01 µM
  relative viability: 0.827
NCI-H2126; first compound 0.03162 µM
  relative viability: 0.779
NCI-H2126; first compound 0.1 µM
  relative viability: 0.666
SK-LU-1; first compound 0.001 µM
  relative viability: 0.916
SK-LU-1; first compound 0.003162 µM
  relative viability: 1.25
SK-LU-1; first compound 0.01 µM
  relative viability: 1.46
SK-LU-1; first compound 0.03162 µM
  relative viability: 0.987
SK-LU-1; first compound 0.1 µM
  relative viability: 0.9
NCI-H1755; first compound 0.001 µM
  relative viability: 1.02
NCI-H1755; first compound 0.003162 µM
  relative viability: 1.15
NCI-H1755; first compound 0.01 µM
  relative viability: 1.12
NCI-H1755; first compound 0.03162 µM
  relative viability: 1.07
NCI-H1755; first compound 0.1 µM
  relative viability: 0.894
NCI-H3122; first compound 0.001 µM
  relative viability: 1.16
NCI-H3122; first compound 0.003162 µM
  relative viability: 1.11
NCI-H3122; first compound 0.01 µM
  relative viability: 1.16
NCI-H3122; first compound 0.03162 µM
  relative viability: 0.894
NCI-H3122; first compound 0.1 µM
  relative viability: 0.833
LXF-289; first compound 0.001 µM
  relative viability: 0.979
LXF-289; first compound 0.003162 µM
  relative viability: 1.15
LXF-289; first compound 0.01 µM
  relative viability: 1.09
LXF-289; first compound 0.03162 µM
  relative viability: 0.949
LXF-289; first compound 0.1 µM
  relative viability: 0.92
HCC-44; first compound 0.001 µM
  relative viability: 0.624
HCC-44; first compound 0.003162 µM
  relative viability: 0.768
HCC-44; first compound 0.01 µM
  relative viability: 0.821
HCC-44; first compound 0.03162 µM
  relative viability: 0.615
HCC-44; first compound 0.1 µM
  relative viability: 0.739
